Assay results taken from paper PMC5431086, “The Rational Design of Therapeutic Peptides for Aminopeptidase N using a Substrate-Based Approach” (Scientific Reports, 2017).
Positions of bridges follow the written chain, without caps; N, C: chain ends. Non-standard residues stand in square brackets, D forms with d. Residues, ends and D or L forms follow the SMILES beside them. Primed or numbered codes have the meaning given here. No end group written: not given here. FITC′ = fluorescein isothiocyanate label; Nle = CCCC[C@H](N)C(=O)O

Tests used:
[1] = target: T1, hAPN (aminopeptidase N) (Homo sapiens, UniProt P15144); experiment: Inhibition of cleavage of fluorogenic alanine substrate (H-Ala-AMC) by APN; type: biochemical
T1 construct: human APN ecdomain (residues 66–967) were expressed and purified as previously described; honeybee-melittin signal peptide (N); His6 (C); made in house; host or cells: insect cells
Description: Five-residue long peptides containing P1–P4′ residues from primary cleavages in the library were synthesized and tested for their ability to prevent the cleavage of a fluorogenic alanine substrate by hAPN.
The peptides used in this study were custom synthesized by AAPPTEC of Louisville, KY using traditional Fmoc solid-phase peptide synthesis. All of the peptides were purified and characterized by AAPPTEC. […] Inhibition assays were performed in triplicate in a 100 mM Tris pH 7.2, Brij 35 0.0002% w/v assay buffer at 37 °C with 0.1 μM APN and 100 μM H-Ala-AMC (fluorophore). Values were recorded by Infinite pro plate reader every 2 minutes for 30 minutes with laser parameters set for excitation at 355 nm and emission at 460 nm.

[2] = test system: PC3 cells; experiment: Clonogenic survival assay, PC3; type: cell-based
Description: (§1) The potential therapeutic efficacy of cyc-LHSPW was next tested in vitro using the PC3 and DU145 cell lines. […] Prior to in vivo therapeutic efficacy studies, a toxicity study was performed with the i.v. administration of cyc-LHSPW. […] Mice bearing established PC3 and DU145 xenografts were treated systemically via tail vein injection with 40 mg/kg of the tumor homing APN peptide cyc-NGR or the cyc-LHSPW peptide t.i.w. x4 (Fig. 6B). […] This therapeutic effect persisted to the end of the study with the cyc-LHSPW-treated mice having a tumor volume of 309.3 ± 92.7 mm^3 at day 35. […] PC3 tumors were removed and stained for the cellular proliferation marker Ki67.
(§2) Figure 6 The therapeutic evaluation of cyc-LHSPW in vivo and in vitro. (A) The effect of the three peptides cyc-LHSPW, LHSPW and cyc-nHSPW on the clonogenic survival of APN-expressing PC3 cells and APN-null DU145 cells. (B) Tumor growth of PC3 and DU145 xenograft mice treated with 40 mg/kg of cyc-LHSPW, cyc-NGR or saline control three times a week for four weeks. […] Statistical significance of cyc-LHSPW compared with control is denoted by: *P < 0.05; and **P < 0.01, as determined by the Student t test. […]
(§3) The clonogenic survival assays were conducted as previously described. […] Tumor measurements were made twice weekly with calipers and the tumor volume (in mm^3) was calculated by the formula 0.5236 × length (L) × width (W) × height (H). […]

[3] = test system: DU145 cells; experiment: Clonogenic survival assay, DU145; type: cell-based
Description: as §1, §2, §3

[4] = test system: DU145 cells; experiment: Flow cytometry binding to APN-null DU145 cells; type: cell-based; details: 500 nmol/L, 60 minutes, 4 °C
Description: (§4) Next, the specificity of the lead peptide inhibitor cyc-LHSPW was tested against a panel of cancer-associated proteases with wide-ranging substrate specificities (Fig. 5A). APN was the only protease inhibited by cyc-LHSPW with chymotrypsin, trypsin, PSA, KLK7, aminopeptidase A, and the exopeptidase FAP all having Ki values above 100 μM. Having assessed selectivity for purified APN, we next evaluated the ability of cyc-LHSPW to preferentially bind to cells that express surface APN using flow cytometry (Fig. 5B). […] The expression of cell surface-associated APN was examined in the androgen receptor negative neuroendocrine prostate cancer cell lines PC3 and DU145 using a commercially available antibody. […] The peptide was next tested on frozen PC3 and DU145 tumor xenografts sections.
(§5) Figure 5 Determining the specificity of cyc-LHSPW for APN. (A) The cyc-LHSPW peptide was specific inhibitor of APN when compared to a panel of proteases. (B) Fluorescence microscopy of frozen PC3 (left) and DU145 (right) xenograft sections with cyc-LHSPW-(Gly)4-FITC. Sections were incubated with 250 nM of cyc-LHSPW-(Gly)4-FITC overnight and then visualized. The merged fluoresence channels are cyc-LHSPW-(Gly)4-FITC (green) and nuclei (DAPI, blue). (C) Analysis of APN inhibitor binding to PC3 (left) and DU145 cells (right) by flow cytometry. […]

[5] = test system: frozen PC3 and DU145 tumor xenografts sections; experiment: Fluorescence microscopy of frozen tumor xenograft sections; details: 250 nM overnight, PC3 vs DU145 sections
Description: as §4, §5

[6] = test system: PC3 cells; experiment: Flow cytometry binding to APN-expressing PC3 cells; type: cell-based; details: 500 nmol/L, 60 minutes, 4 °C
Description: as §4, §5

T1 sequence (P15144 66-967): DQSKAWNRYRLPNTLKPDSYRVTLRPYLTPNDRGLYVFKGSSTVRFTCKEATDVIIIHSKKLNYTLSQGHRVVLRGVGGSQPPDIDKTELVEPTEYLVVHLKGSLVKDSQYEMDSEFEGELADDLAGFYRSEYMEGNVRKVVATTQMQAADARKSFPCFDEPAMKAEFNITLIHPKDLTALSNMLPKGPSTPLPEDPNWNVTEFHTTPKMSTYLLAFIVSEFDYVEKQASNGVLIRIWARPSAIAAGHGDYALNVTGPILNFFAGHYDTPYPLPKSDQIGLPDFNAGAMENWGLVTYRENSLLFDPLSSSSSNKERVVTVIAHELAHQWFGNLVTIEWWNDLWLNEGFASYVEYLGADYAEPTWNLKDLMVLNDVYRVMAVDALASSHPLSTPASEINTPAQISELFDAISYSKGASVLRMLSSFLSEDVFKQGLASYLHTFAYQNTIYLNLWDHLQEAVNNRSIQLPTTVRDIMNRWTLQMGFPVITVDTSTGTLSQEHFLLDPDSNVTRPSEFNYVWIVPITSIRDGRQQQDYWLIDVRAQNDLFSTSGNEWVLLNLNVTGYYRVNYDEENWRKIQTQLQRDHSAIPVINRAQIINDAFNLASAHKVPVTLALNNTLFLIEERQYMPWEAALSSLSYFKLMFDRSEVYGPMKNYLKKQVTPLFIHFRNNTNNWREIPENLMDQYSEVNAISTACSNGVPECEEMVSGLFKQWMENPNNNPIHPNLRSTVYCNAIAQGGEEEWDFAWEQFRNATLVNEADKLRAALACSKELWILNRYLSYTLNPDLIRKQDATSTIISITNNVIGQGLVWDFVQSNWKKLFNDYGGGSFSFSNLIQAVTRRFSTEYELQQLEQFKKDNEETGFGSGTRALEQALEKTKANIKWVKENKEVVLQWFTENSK

Compound	inhibition of APN (in words) [1]	clonogenic survival [2]	clonogenic survival [3]	binding to cells by flow cytometry [4]	labeling of xenograft sections by fluorescence microscopy [5]	binding to cells by flow cytometry [6]	binding to cells by flow cytometry ([6]; listed as FITC labeled cyc-LHSPW)
CCCC[C@@H]1NC(=O)[C@@H](N)CSSC[C@@H](C(=O)O)NC(=O)[C@H](Cc2c[nH]c3ccccc23)NC(=O)[C@@H]2CCCN2C(=O)[C@H](CO)NC(=O)[C@H](Cc2c[nH]cn2)NC1=O [cyc-nHSPW, Cys-nHSPW-Cys] (H-C[Nle]HSPWC-OH; disulfide 1-7; N-terminus and C-terminus assumed)	eliminated any measureable inhibition of APN	No significant biological effect	No significant biological effect				
cyc-LHSPW-(Gly)4-FITC: fluorophore-containing version of cyc-LHSPW with a (Gly)4-FITC group coupled to the C-terminal cysteine (CLHSPWCGGGG-{FITC′}; disulfide 1-7)				no noticeable labelling of DU145 cells	Preferential labeling of the PC3 xenograft section was evident	selectively labeled the APN-expressing PC3 cells over the APN-null DU145 cells	preferentially bound to PC3 cells
